Experimental data from ChEMBL document CHEMBL5154876, “Design, synthesis and promising anti-tumor efficacy of novel imidazo[1,2-a]pyridine derivatives as potent autotaxin allosteric inhibitors” (Eur J Med Chem, 2022).

Key:
MDA-MB-231 = test: Cytotoxicity against human MDA-MB-231 cells assessed as inhibition of cell growth incubated for 72 hrs by MTT assay; type: functional, cell-based; settings: MDA-MB-231, 72 h
NCI-H1581 = test: Cytotoxicity against human NCI-H1581 cells assessed as inhibition of cell growth incubated for 72 hrs by MTT assay; type: functional, cell-based; settings: NCI-H1581, 72 h
MCF7 = test: Cytotoxicity against human MCF-7 cells assessed as inhibition of cell growth incubated for 72 hrs by MTT assay; type: functional, cell-based; settings: MCF7, 72 h
RAW264.7 = test: Cytotoxicity against mouse RAW264.7 cells assessed as inhibition of cell growth incubated for 72 hrs by MTT assay; type: functional, cell-based; settings: RAW264.7, 72 h
Autotaxin = Autotaxin (Homo sapiens, UniProt Q13822); test: Negative allosteric modulation activity against human ATX using FS-3 as substrate preincubated for 45 mins followed by substrate addition and measured every 30 mins by multi-mode microplate reader
NCI-H2228 = test: Cytotoxicity against human H2228 cells assessed as inhibition of cell growth incubated for 72 hrs by MTT assay; type: functional, cell-based; settings: NCI-H2228, 72 h
A549 = test: Cytotoxicity against human A549 cells assessed as inhibition of cell growth incubated for 72 hrs by MTT assay; type: functional, cell-based; settings: A549, 72 h
Hep 3B2 = test: Cytotoxicity against human Hep3B cells assessed as inhibition of cell growth incubated for 72 hrs by MTT assay; type: functional, cell-based

SMILES | IC50 (Autotaxin) | IC50 (MDA-MB-231) | IC50 (NCI-H1581) | IC50 (MCF7) | IC50 (RAW264.7) | IC50 (NCI-H2228) | IC50 (A549) | IC50 (Hep 3B2)
CCc1nc2c(C)cc(-c3ccc(CN4CCC(O)CC4)cc3)cn2c1NC(=O)OCc1cc(Cl)cc(Cl)c1 | 17 nM | 1.58 µM | 4.8 µM | 5.32 µM | 4.58 µM | 7.36 µM |  | 
CCc1nc2c(C)cc(-c3ccc(CNCCO)cc3)cn2c1NC(=O)OCc1cc(Cl)cc(Cl)c1 | 34 nM | > 20 µM |  | > 20 µM |  |  | > 20 µM | > 20 µM
CCc1nc2c(C)cc(-c3ccc(CO)cc3)cn2c1NC(=O)OCc1ccc(F)c(F)c1 | > 1000 nM |  |  |  |  |  |  | 
CCc1nc2c(C)cc(-c3ccc(CN4CCC[C@H]4CO)cc3)cn2c1NC(=O)OCc1cc(Cl)cc(Cl)c1 | 41 nM |  |  |  | 2.51 µM |  | 5.78 µM | 
CCc1nc2c(C)cc(-c3ccc(CN(CCO)CCO)cc3)cn2c1NC(=O)OCc1cc(Cl)cc(Cl)c1 | 71 nM |  |  |  |  |  |  | 
CCc1nc2c(C)cc(N3CCN(CC(=O)N4CC(O)C4)CC3)cn2c1N(C)c1nc(-c2ccc(F)cc2)c(C#N)s1 [ZIRITAXESTAT] |  | > 20 µM | > 20 µM | > 20 µM | > 20 µM | > 20 µM | > 20 µM | > 20 µM
CCc1nc2c(C)cc(-c3ccc(CN4CCSCC4)cc3)cn2c1NC(=O)OCc1cc(Cl)cc(Cl)c1 | 91 nM |  |  | > 20 µM |  |  | > 20 µM | > 20 µM
CCc1nc2c(C)cc(-c3ccc(CN4CCCCC4)cc3)cn2c1NC(=O)OCc1cc(Cl)cc(Cl)c1 | 164 nM |  |  |  |  |  |  | 
O=C(CCN1CCN(C(=O)OCc2cc(Cl)cc(Cl)c2)CC1)c1ccc2[nH]c(=O)oc2c1 |  | > 20 µM | > 20 µM | > 20 µM | 9.58 µM | > 20 µM | > 20 µM | > 20 µM
CCc1nc2c(C)cc(-c3ccc(CN4CCOCC4)cc3)cn2c1NC(=O)OCc1cc(Cl)cc(Cl)c1 | 129 nM |  |  |  |  |  |  | 

The next lines start with results.

IC50 (Autotaxin) | SMILES | IC50 (MDA-MB-231) | IC50 (NCI-H1581) | IC50 (MCF7) | IC50 (RAW264.7) | IC50 (NCI-H2228) | IC50 (A549) | IC50 (Hep 3B2)
140 nM | CCc1nc2c(C)cc(-c3ccc(CN4CCCC4)cc3)cn2c1NC(=O)OCc1cc(Cl)cc(Cl)c1 |  |  |  |  |  |  | 
217 nM | CCc1nc2c(C)cc(-c3ccc(CN4CCN(C)CC4)cc3)cn2c1NC(=O)OCc1cc(Cl)cc(Cl)c1 |  |  | 5.78 µM | 1.41 µM |  | 4.02 µM | 4.9 µM
24 nM | CCc1nc2c(C)cc(-c3ccc(CN4CCC(C)CC4)cc3)cn2c1NC(=O)OCc1cc(Cl)cc(Cl)c1 | 5.83 µM | 4.04 µM | 3.98 µM | 2.13 µM | 5.15 µM | 8.18 µM | 4.85 µM
41 nM | CCc1nc2c(C)cc(-c3ccc(CN4CCN(CCO)CC4)cc3)cn2c1NC(=O)OCc1ccc(F)c(F)c1 | 4.83 µM |  | 9.51 µM | 5 µM | 9.65 µM | 5.58 µM | 10.6 µM
154 nM | CCc1nc2c(C)cc(-c3ccc(CN4CCN(C)CC4)cc3)cn2c1NC(=O)OCc1ccc(F)c(F)c1 | 6.23 µM |  | 6.44 µM | 3.59 µM |  | > 20 µM | 4.94 µM
81 nM | CCc1nc2c(C)cc(-c3ccc(CN4CCN(CCO)CC4)cc3)cn2c1NC(=O)OCc1ccc(C(F)(F)F)cc1 |  | 5.67 µM | 7.01 µM | 1.98 µM |  | 5.06 µM | 6.09 µM
287 nM | CCc1nc2c(C)cc(-c3ccc(CN4CCSCC4)cc3)cn2c1NC(=O)OCc1ccc(F)c(F)c1 | > 20 µM |  |  |  |  | > 20 µM | > 20 µM
7.1 nM | CCc1nc2c(C)cc(-c3ccc(CN4CCN(CCO)CC4)cc3)cn2c1NC(=O)OCc1ccc(F)cc1 | > 20 µM | > 20 µM | > 20 µM | > 20 µM | > 20 µM | > 20 µM | > 20 µM
26.4 nM | CCc1nc2c(C)cc(-c3ccc(CN4CCC[C@H]4CO)cc3)cn2c1NC(=O)OCc1ccc(F)cc1 | > 20 µM | > 20 µM | > 20 µM | > 20 µM | > 20 µM | > 20 µM | > 20 µM
234 nM | CCc1nc2c(C)cc(-c3ccc(CN4CCN(CC)CC4)cc3)cn2c1NC(=O)OCc1ccc(C(F)(F)F)cc1 |  |  |  |  |  |  | 
33.5 nM | CCc1nc2c(C)cc(-c3ccc(CN4CCOCC4)cc3)cn2c1NC(=O)OCc1ccc(OC)c(Cl)c1 | > 20 µM | > 20 µM | > 20 µM | > 20 µM | > 20 µM | > 20 µM | > 20 µM
51.3 nM | CCc1nc2c(C)cc(-c3ccc(CN4CCOCC4)cc3)cn2c1NC(=O)OCc1ccc(F)cc1 | > 20 µM | > 20 µM | > 20 µM | > 20 µM | > 20 µM | > 20 µM | > 20 µM
171 nM | CCc1nc2c(C)cc(-c3ccc(CN4CCN(CC)CC4)cc3)cn2c1NC(=O)OCc1ccc(F)c(F)c1 |  |  |  |  |  |  | 
313 nM | CCc1nc2c(C)cc(-c3ccc(CN4CCN(C)CC4)cc3)cn2c1NC(=O)OCc1ccc(C(F)(F)F)cc1 | 4.31 µM |  | > 20 µM | > 20 µM |  | > 20 µM | > 20 µM
